Source: patent US20210300940A1 (Merck Patent GmbH, priority 2018, published 2021)
Structures can show the parent of a compound that is named as a salt.

Columns and labels:
TLR7 = biological target: T1, TLR7 (Homo sapiens, UniProt Q9NYK1); assay: HEK/293 TLR7 Cell Assay; assay type: cell-based; details: TLR7/NFKb HEK cells, R848 agonist 10 uM final concentration, Steady-Glo readout; read-out: TLR7 potency
T1 construct: expressed in transfected cells; host or cells: HEK/293 cells carrying TLR7 and an NF-kB luciferase reporter
T1 sequence (Q9NYK1 27-1049): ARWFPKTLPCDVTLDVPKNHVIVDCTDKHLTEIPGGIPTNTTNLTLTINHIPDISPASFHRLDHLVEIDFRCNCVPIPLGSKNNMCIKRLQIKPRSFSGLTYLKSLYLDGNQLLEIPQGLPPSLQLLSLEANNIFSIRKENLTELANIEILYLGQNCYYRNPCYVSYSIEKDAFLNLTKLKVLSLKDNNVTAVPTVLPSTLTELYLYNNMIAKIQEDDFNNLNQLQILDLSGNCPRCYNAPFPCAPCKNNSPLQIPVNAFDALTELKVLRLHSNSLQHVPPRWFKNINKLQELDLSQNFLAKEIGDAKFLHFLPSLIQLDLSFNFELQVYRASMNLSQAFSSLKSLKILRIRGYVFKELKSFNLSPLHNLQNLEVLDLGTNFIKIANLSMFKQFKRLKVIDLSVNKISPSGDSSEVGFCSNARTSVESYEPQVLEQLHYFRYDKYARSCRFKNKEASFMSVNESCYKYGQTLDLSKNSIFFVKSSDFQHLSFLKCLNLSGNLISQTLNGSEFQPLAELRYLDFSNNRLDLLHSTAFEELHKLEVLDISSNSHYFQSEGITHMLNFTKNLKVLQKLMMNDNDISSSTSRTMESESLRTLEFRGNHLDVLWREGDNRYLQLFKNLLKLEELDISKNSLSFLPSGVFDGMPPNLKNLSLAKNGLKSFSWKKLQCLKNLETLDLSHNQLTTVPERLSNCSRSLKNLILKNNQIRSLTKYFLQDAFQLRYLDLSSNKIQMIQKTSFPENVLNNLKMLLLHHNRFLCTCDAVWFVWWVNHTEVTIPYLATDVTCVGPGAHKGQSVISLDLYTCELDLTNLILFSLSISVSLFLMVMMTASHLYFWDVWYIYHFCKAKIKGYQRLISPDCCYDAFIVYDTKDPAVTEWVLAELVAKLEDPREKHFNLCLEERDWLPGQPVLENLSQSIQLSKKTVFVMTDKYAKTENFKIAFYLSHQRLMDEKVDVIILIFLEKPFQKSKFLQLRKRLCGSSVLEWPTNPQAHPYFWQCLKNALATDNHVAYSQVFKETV
In short: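 Compounds added to HEK cells expressing TLR7 with an NFκB reporter 30 min ahead of 10 uM R848 challenge; luciferase signal (Steady-Glo) measured after 5 h, cells having been seeded 24 h earlier at 5000 per well.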

TLR8 = biological target: T2, TLR8 (Homo sapiens, UniProt Q9NR97); assay: HEK/293 TLR8 Cell Assay; assay type: cell-based; details: HEK cells, R848 agonist 30 uM final concentration, Steady-Glo readout; read-out: TLR8 potency
T2 construct: expressed in transfected cells; host or cells: HEK/293 reporter cells (NF-kB luciferase)
T2 sequence (Q9NR97 27-1041): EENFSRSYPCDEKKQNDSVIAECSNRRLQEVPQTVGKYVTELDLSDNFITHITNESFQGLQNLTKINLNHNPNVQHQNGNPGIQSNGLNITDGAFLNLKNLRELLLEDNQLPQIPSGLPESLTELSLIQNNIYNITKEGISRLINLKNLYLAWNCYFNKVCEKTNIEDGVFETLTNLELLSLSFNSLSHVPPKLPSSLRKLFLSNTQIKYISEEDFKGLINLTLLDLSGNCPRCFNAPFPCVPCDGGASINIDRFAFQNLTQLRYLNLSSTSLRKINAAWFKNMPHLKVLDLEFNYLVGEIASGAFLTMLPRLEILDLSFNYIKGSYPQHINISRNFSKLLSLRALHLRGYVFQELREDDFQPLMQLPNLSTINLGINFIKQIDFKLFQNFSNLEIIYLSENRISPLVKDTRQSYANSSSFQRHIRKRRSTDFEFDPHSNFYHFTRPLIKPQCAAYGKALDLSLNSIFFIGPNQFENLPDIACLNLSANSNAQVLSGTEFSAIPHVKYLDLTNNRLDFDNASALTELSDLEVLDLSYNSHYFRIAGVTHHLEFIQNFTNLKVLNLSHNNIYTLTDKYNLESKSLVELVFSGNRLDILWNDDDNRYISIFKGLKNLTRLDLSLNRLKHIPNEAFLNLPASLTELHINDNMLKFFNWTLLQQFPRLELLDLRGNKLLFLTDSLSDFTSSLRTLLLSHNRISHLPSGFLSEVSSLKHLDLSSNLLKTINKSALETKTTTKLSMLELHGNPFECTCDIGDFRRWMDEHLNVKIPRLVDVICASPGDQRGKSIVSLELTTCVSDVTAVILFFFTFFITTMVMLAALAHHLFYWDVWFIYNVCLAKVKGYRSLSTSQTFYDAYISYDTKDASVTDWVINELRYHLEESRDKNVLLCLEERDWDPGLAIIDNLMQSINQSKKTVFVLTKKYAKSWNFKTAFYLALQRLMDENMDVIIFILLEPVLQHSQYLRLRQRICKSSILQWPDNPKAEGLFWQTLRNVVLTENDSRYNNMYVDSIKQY

SMILES | IC50 (TLR7) [nM] | IC50 (TLR8) [nM]
C[C@@H]1CN(c2ccc(C#N)c3nccnc23)C[C@H](C(=O)N[C@H]2CNC[C@H]2F)O1 [Example 294, (2R,6R)-4-(8-Cyano-quinoxalin-5-yl)-6-methyl-morpholine-2-carboxylic acid ((3S,4R)-4-fluoro-pyrrolidin-3-yl)-amide hydrochloride (2)] | < 75 | < 75
CN1CCC(F)(CC(=O)N[C@@H]2C[C@H](C(F)(F)F)CN(c3ccc(C#N)c4ncncc34)C2)CC1 [Example 71, N-[(3R,5S)-1-(8-cyanoquinazolin-5-yl)-5-(trifluoromethyl)piperidin-3-yl]-2-(4-fluoro-1-methylpiperidin-4-yl)acetamide] | < 75 | 75 to 150
CN1CCN(CC(=O)N[C@@H]2C[C@H](C(F)(F)F)CN(c3ccc(C#N)c4ncccc34)C2)CC1 [Example 82, N-((3R,5S)-1-(8-cyanoquinolin-5-yl)-5-(trifluoromethyl)piperidin-3-yl)-2-(4-methylpiperazin-1-yl)acetamide] | 75 to 150 | < 75
CN1CC[C@@](F)(CNC(=O)[C@H]2CN(c3ccc(C#N)c4nccnc34)C[C@@H](C(F)(F)F)O2)C1 (single isomer, unassigned) [Example 355] | < 75 | < 75
Cc1c(F)cc(N2C[C@@H](C)C[C@@H](NC(=O)[C@H](N)CO)C2)c2cccnc12 [Example 135, (R)-2-Amino-N-[(3R,5S)-1-(7-fluoro-8-methyl-quinolin-5-yl)-5-methyl-piperidin-3-yl]-3-hydroxy-propionamide] | < 75 | < 75
C[C@@H]1CN(c2cnc(C#N)c3ncccc23)C[C@H](CN2CCS(=O)(=O)CC2)O1 [Example 376, 5-[(2S,6R)-2-(1,1-Dioxo-1lambda6-thiomorpholin-4-ylmethyl)-6-methyl-morpholin-4-yl]-[1,7]naphthyridine-8-carbonitrile] | > 150 | > 150
N#Cc1ccc(N2C[C@H](NC(=O)[C@@H]3CCCN3)C[C@H](C(F)(F)F)C2)c2nccnc12 [Example 124, (2S)—N-[(3R,5S)-1-(8-cyanoquinoxalin-5-yl)-5-(trifluoromethyl)piperidin-3-yl]pyrrolidine-2-carboxamide] | < 75 | < 75
C[C@@H]1CN(c2cnc(C(F)(F)F)c3ncccc23)C[C@H](CO)O1 [Example 383, [(2R,6R)-6-Methyl-4-(8-trifluoromethyl-[1,7]naphthyridin-5-yl)-morpholin-2-yl]-methanol] | > 150 | > 150
C[C@@H]1CN(c2ccc(C#N)c3nccnc23)C[C@H](C(=O)NC[C@@H]2COCCN2C)O1 (single isomer, unassigned) [Example 264] | < 75 | < 75
C[C@H]1C[C@@H](NC(=O)[C@@H](C)N2CCC(O)CC2)CN(c2ccc(C(F)(F)F)c3ncccc23)C1 (single isomer, unassigned) [Example 105] | > 150 | < 75
CN(C)CCNC(=O)N[C@@H]1C[C@H](C(F)(F)F)CN(c2ccc(C#N)c3ncccc23)C1 [Example 143, 1-[(3R,5S)-1-(8-cyanoquinolin-5-yl)-5-(trifluoromethyl)piperidin-3-yl]-3-[2-(dimethylamino)ethyl]urea] | < 75 | 75 to 150
C[C@H]1C[C@@H](NCCC2CCNC2=O)CN(c2ccc(C(F)(F)F)c3ncccc23)C1 (stereo partly drawn) [Example 30, 3-{2-[(3R,5S)-5-Methyl-1-(8-trifluoromethyl-quinolin-5-yl)-piperidin-3-ylamino]-ethyl}-pyrrolidin-2-one] | < 75 | < 75
C[C@H]1C[C@@H](NC(=O)CCS(=O)(=O)N(C)C)CN(c2ccc(C#N)c3nccnc23)C1 [Example 195, N-[(3R,5S)-1-(8-Cyano-quinoxalin-5-yl)-5-methyl-piperidin-3-yl]-3-dimethylsulfamoyl-propionamide] | 75 to 150 | 75 to 150
C[C@@H]1CN(c2ccc(C#N)c3nccnc23)C[C@H](CSC[C@@H](O)CO)O1 (single isomer, unassigned) [Example 230] | < 75 | < 75
C[C@@H]1CN(c2ccc(C#N)c3nccnc23)C[C@H](c2nc(C3CC3)no2)O1 (racemic) [Example 214, 8-[(2R,6R)-2-(3-Cyclopropyl-[1,2,4]oxadiazol-5-yl)-6-methyl-morpholin-4-yl]-quinoxaline-5-carbonitrile] | 75 to 150 | < 75
C[C@@H]1CN(c2ccc(C#N)c3nccnc23)C[C@H](C(=O)N2C[C@@H](N)C3(CC3)C2)O1 [Example 288, 8-[(2R,6R)-2-((S)-7-Amino-5-aza-spiro[2.4]heptane-5-carbonyl)-6-methyl-morpholin-4-yl]-quinoxaline-5-carbonitrile] | < 75 | < 75
C[C@@H]1CN(c2cnc(C#N)c3ncccc23)C[C@H](CN2CCC(F)(CN)CC2)O1 [Example 370, 5-[(2S,6R)-2-(4-Aminomethyl-4-fluoro-piperidin-1-ylmethyl)-6-methyl-morpholin-4-yl]-[1,7]naphthyridine-8-carbonitrile] | < 75 | < 75
CC(C(=O)N[C@@H]1C[C@H](C)CN(c2ccc(C#N)c3nccnc23)C1)N1CCC(O)CC1 (single isomer, unassigned) [Example 102] | < 75 | < 75
C[C@H]1C[C@@H](NCCC(=O)NO)CN(c2ccc(C(F)(F)F)c3ncccc23)C1 [Example 36, N-Hydroxy-3-[(3R,5S)-5-methyl-1-(8-trifluoromethyl-quinolin-5-yl)-piperidin-3-ylamino]-propionamide] | < 75 | < 75
N#Cc1ccc(N2C[C@@H](C(=O)NC[C@H](O)CO)O[C@@H](C(F)(F)F)C2)c2nccnc12 (single isomer, unassigned) [Example 281] | > 150 | > 150
N#Cc1ccc(N2C[C@H](NC(=O)[C@@]3(F)CCNC3)C[C@H](C(F)(F)F)C2)c2cccnc12 (single isomer, unassigned) [Example 164] | 75 to 150 | 75 to 150
C[C@@H]1CN(c2ccc(C#N)c3nccnc23)C[C@H](CN2CC(C)(O)C2)O1 [Example 218, 8-[(2S,6R)-2-(3-Hydroxy-3-methyl-azetidin-1-ylmethyl)-6-methyl-morpholin-4-yl]-quinoxaline-5-carbonitrile] | < 75 | > 150
CN1CCC(O)(CC(=O)N[C@@H]2C[C@H](C(F)(F)F)CN(c3ccc(C#N)c4ncccc34)C2)CC1 [Example 73, N-[(3R,5S)-1-(8-cyanoquinolin-5-yl)-5-(trifluoromethyl)piperidin-3-yl]-2-(4-hydroxy-1-methylpiperidin-4-yl)acetamide] | 75 to 150 | > 150
